These results are taken from patent publication US20090018134A1, “Compounds - 945” (AstraZeneca AB, priority 2007, published 2009).

Broadly, the IC50 is the concentration at which inhibition is half-maximal.

Structures are written as SMILES.

In this assay the target is T1, mTOR (Homo sapiens, UniProt P42345).
T1 construct: FLAG; made in house
T1 sequence (P42345 1362-2549): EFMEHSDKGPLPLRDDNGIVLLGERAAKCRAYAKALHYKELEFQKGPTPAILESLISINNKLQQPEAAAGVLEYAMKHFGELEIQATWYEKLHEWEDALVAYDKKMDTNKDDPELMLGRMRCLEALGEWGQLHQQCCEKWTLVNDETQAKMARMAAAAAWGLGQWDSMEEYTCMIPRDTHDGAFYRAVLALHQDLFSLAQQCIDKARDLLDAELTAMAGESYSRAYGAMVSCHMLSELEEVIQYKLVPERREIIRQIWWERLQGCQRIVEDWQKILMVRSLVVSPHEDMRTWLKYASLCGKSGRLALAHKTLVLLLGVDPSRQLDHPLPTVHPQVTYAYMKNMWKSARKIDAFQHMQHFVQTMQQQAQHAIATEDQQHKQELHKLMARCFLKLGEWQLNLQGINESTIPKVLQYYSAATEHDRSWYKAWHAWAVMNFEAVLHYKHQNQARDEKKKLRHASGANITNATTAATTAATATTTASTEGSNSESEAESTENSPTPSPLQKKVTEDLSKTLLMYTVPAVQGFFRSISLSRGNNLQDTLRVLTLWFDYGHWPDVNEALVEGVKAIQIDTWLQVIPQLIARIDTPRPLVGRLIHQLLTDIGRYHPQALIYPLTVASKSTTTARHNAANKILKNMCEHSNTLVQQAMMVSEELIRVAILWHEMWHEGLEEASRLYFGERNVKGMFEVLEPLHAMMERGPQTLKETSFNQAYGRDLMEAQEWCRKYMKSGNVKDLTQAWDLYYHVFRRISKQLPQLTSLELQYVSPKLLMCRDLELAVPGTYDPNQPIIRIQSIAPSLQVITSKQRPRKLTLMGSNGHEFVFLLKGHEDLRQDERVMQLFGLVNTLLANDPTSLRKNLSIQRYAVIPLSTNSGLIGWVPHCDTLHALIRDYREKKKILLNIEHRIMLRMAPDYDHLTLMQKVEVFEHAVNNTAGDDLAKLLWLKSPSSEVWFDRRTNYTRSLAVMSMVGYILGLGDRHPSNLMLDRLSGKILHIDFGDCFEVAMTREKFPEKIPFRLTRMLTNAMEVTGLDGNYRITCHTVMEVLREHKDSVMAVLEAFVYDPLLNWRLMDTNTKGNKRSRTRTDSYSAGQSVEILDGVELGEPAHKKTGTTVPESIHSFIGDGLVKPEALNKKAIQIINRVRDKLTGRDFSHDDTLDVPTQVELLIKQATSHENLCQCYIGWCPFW
The assay can be described thus: In Vitro mTOR Kinase Assay (Echo), Test (a)(ii). The following applies: table of enzyme assay Test (a)(ii); read-out: Test (a)(ii) IC50. The format is biochemical. The gist of the method: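 Inhibition expressed as IC50 from an AlphaScreen read-out: phospho-T389 p70 S6K antibody plus streptavidin donor/protein A acceptor beads, left overnight in the dark. The kinase reaction ran 2 h at room temperature, then was stopped with EDTA. Enzyme: FLAG-purified mTOR 1362-2549 fragment from stable HEK293 cells.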
With `C[C@H]1COCCN1c1cc(C2(S(=O)(=O)c3ccc(Cl)cc3)CC2)nc(-c2ccc(NC(=O)NC3CCC3)cc2)n1` [Example 27a, 1-[4-[4-[1-(4-chlorophenyl)sulfonylcyclopropyl]-6-[(3S)-3-methylmorpholin-4-yl]pyrimidin-2-yl]phenyl]-3-cyclobutylurea], the IC50 was found to be 3.88 nM.

Consider `C[C@H]1COCCN1c1cc(C2(S(=O)(=O)c3ccc(Cl)cc3)CC2)nc(-c2ccc(NC(=O)Nc3ccccn3)cc2)n1` [Example 27b, 1-[4-[4-[1-(4-chlorophenyl)sulfonylcyclopropyl]-6-[(3S)-3-methylmorpholin-4-yl]pyrimidin-2-yl]phenyl]-3-pyridin-2-ylurea], for which the IC50 was found to be 4.25 nM.

On to `CC(C)CNC(=O)Nc1ccc(-c2nc(N3CCOC[C@@H]3C)cc(C3(S(=O)(=O)c4ccc(Cl)cc4)CC3)n2)cc1` [Example 27c, 1-[4-[4-[1-(4-chlorophenyl)sulfonylcyclopropyl]-6-[(3S)-3-methylmorpholin-4-yl]pyrimidin-2-yl]phenyl]-3-(2-methylpropyl)urea], for which the IC50 amounted to 14 nM.

With `CC(C)NC(=O)Nc1ccc(-c2nc(N3CCOC[C@@H]3C)cc(C3(S(=O)(=O)c4ccc(Cl)cc4)CC3)n2)cc1` [Example 27d, 1-[4-[4-[1-(4-chlorophenyl)sulfonylcyclopropyl]-6-[(3S)-3-methylmorpholin-4-yl]pyrimidin-2-yl]phenyl]-3-propan-2-ylurea], the IC50 was found to be 3.07 nM.

With `CCCNC(=O)Nc1ccc(-c2nc(N3CCOC[C@@H]3C)cc(C3(S(=O)(=O)c4ccc(Cl)cc4)CC3)n2)cc1` [Example 27i, 3-[4-[4-[1-(4-chlorophenyl)sulfonylcyclopropyl]-6-[(3S)-3-methylmorpholin-4-yl]pyrimidin-2-yl]phenyl]-1-propylurea], the IC50 amounted to 3.02 nM.

Consider `C[C@H]1COCCN1c1cc(C2(S(=O)(=O)c3ccc(Cl)cc3)CC2)nc(-c2ccc(NC(=O)Nc3ccc(C(F)(F)F)cc3)cc2)n1` [Example 27j, 1-[4-[4-[1-(4-chlorophenyl)sulfonylcyclopropyl]-6-[(3S)-3-methylmorpholin-4-yl]pyrimidin-2-yl]phenyl]-3-[4-(trifluoromethyl)phenyl]urea], for which the IC50 is 7.61 nM.

Regarding `C[C@H]1COCCN1c1cc(C2(S(=O)(=O)c3ccc(Cl)cc3)CC2)nc(-c2ccc(NC(=O)NC(C)(C)CO)cc2)n1` [Example 27k, 1-[4-[4-[1-(4-chlorophenyl)sulfonylcyclopropyl]-6-[(3S)-3-methylmorpholin-4-yl]pyrimidin-2-yl]phenyl]-3-(1-hydroxy-2-methylpropan-2-yl)urea], the IC50 came out at 4.62 nM.

In the case of `C[C@H]1COCCN1c1cc(C2(S(=O)(=O)c3ccc(Cl)cc3)CC2)nc(-c2ccc(NC(=O)NCCCO)cc2)n1` [Example 27l, 1-[4-[4-[1-(4-chlorophenyl)sulfonylcyclopropyl]-6-[(3S)-3-methylmorpholin-4-yl]pyrimidin-2-yl]phenyl]-3-(3-hydroxypropyl)urea], the IC50 was found to be 1.12 nM.

Turning to `C[C@H]1COCCN1c1cc(C2(S(=O)(=O)c3ccc(Cl)cc3)CC2)nc(-c2ccc(NC(=O)Nc3cnn(C)c3)cc2)n1` [Example 27m, 1-[4-[4-[1-(4-chlorophenyl)sulfonylcyclopropyl]-6-[(3S)-3-methylmorpholin-4-yl]pyrimidin-2-yl]phenyl]-3-(1-methylpyrazol-4-yl)urea], the concentration for half-maximal inhibition (IC50) worked out at 1.44 nM.

Turning to `C[C@H]1COCCN1c1cc(C2(S(=O)(=O)c3ccccn3)CC2)nc(-c2ccc(NC(=O)NC3CCC3)cc2)n1` [Example 28a, 3-cyclobutyl-1-[4-[4-[(3S)-3-methylmorpholin-4-yl]-6-(1-pyridin-2-ylsulfonylcyclopropyl)pyrimidin-2-yl]phenyl]urea], the IC50 turned out to be 2.53 nM.

Turning to `C[C@H]1COCCN1c1cc(C2(S(=O)(=O)c3ccccn3)CC2)nc(-c2ccc(NC(=O)Nc3ccccn3)cc2)n1` [Example 28b, 1-[4-[4-[(3S)-3-methylmorpholin-4-yl]-6-(1-pyridin-2-ylsulfonylcyclopropyl)pyrimidin-2-yl]phenyl]-3-pyridin-2-ylurea], the IC50 is 1.49 nM.

As to `CC(C)CNC(=O)Nc1ccc(-c2nc(N3CCOC[C@@H]3C)cc(C3(S(=O)(=O)c4ccccn4)CC3)n2)cc1` [Example 28c, 1-[4-[4-[(3S)-3-methylmorpholin-4-yl]-6-(1-pyridin-2-ylsulfonylcyclopropyl)pyrimidin-2-yl]phenyl]-3-(2-methylpropyl)urea], the IC50 worked out at 8.47 nM.

For the compound `CC(C)NC(=O)Nc1ccc(-c2nc(N3CCOC[C@@H]3C)cc(C3(S(=O)(=O)c4ccccn4)CC3)n2)cc1` [Example 28d, 1-[4-[4-[(3S)-3-methylmorpholin-4-yl]-6-(1-pyridin-2-ylsulfonylcyclopropyl)pyrimidin-2-yl]phenyl]-3-propan-2-ylurea], the IC50 was 2.37 nM.

As for `CNC(=O)Nc1ccc(-c2nc(N3CCOC[C@@H]3C)cc(C3(S(=O)(=O)c4ccccn4)CC3)n2)cc1` [Example 28e, 3-methyl-1-[4-[4-[(3S)-3-methylmorpholin-4-yl]-6-(1-pyridin-2-ylsulfonylcyclopropyl)pyrimidin-2-yl]phenyl]urea], the IC50 is 0.434 nM.

Take `C[C@H]1COCCN1c1cc(C2(S(=O)(=O)c3ccccn3)CC2)nc(-c2ccc(NC(=O)NCCN(C)C)cc2)n1` [Example 28f, 3-(2-dimethylaminoethyl)-1-[4-[4-[(3S)-3-methylmorpholin-4-yl]-6-(1-pyridin-2-ylsulfonylcyclopropyl)pyrimidin-2-yl]phenyl]urea]: the IC50 is 67.4 nM.

As for `CCCNC(=O)Nc1ccc(-c2nc(N3CCOC[C@@H]3C)cc(C3(S(=O)(=O)c4ccccn4)CC3)n2)cc1` [Example 28h, 3-[4-[4-[(3S)-3-methylmorpholin-4-yl]-6-(1-pyridin-2-ylsulfonylcyclopropyl)pyrimidin-2-yl]phenyl]-1-propylurea], the IC50 amounted to 0.93 nM.

As to `C[C@H]1COCCN1c1cc(C2(S(=O)(=O)c3ccccn3)CC2)nc(-c2ccc(NC(=O)Nc3ccc(C(F)(F)F)cc3)cc2)n1` [Example 28i, 1-[4-[4-[(3S)-3-methylmorpholin-4-yl]-6-(1-pyridin-2-ylsulfonylcyclopropyl)pyrimidin-2-yl]phenyl]-3-[4-(trifluoromethyl)phenyl]urea], the IC50 turned out to be 1.53 nM.

As to `C[C@H]1COCCN1c1cc(C2(S(=O)(=O)c3ccccn3)CC2)nc(-c2ccc(NC(=O)NC(C)(C)CO)cc2)n1` [Example 28j, 3-(1-hydroxy-2-methylpropan-2-yl)-1-[4-[4-[(3S)-3-methylmorpholin-4-yl]-6-(1-pyridin-2-ylsulfonylcyclopropyl)pyrimidin-2-yl]phenyl]urea], the IC50 stood at 5.57 nM.

For the compound `C[C@H]1COCCN1c1cc(C2(S(=O)(=O)c3ccccn3)CC2)nc(-c2ccc(NC(=O)NCCCO)cc2)n1` [Example 28k, 3-(3-hydroxypropyl)-1-[4-[4-[(3S)-3-methymorpholin-4-yl]-6-(1-pyridin-2-ylsulfonylcyclopropyl)pyrimidin-2-yl]phenyl]urea], the IC50 came to 0.954 nM.

In the case of `C[C@H]1COCCN1c1cc(C2(S(=O)(=O)c3ccccn3)CC2)nc(-c2ccc(NC(=O)Nc3cnn(C)c3)cc2)n1` [Example 28l, 1-[4-[4-[(3S)-3-methylmorpholin-4-yl]-6-(1-pyridin-2-ylsulfonylcyclopropyl)pyrimidin-2-yl]phenyl]-3-(1-methylpyrazol-4-yl)urea], the IC50 turned out to be 0.442 nM.

For `C[C@H]1COCCN1c1cc(C2(S(C)(=O)=O)CC2)nc(-c2ccc(NC(N)=O)cc2)n1` [Example 29, [4-[4-[(3S)-3-Methylmorpholin-4-yl]-6-(1-methylsulfonylcyclopropyl)pyrimidin-2-yl]phenyl]urea], the IC50 worked out at 4.2 nM.

As to `C[C@H]1COCCN1c1cc(C2(S(=O)(=O)c3cc(F)cc(F)c3)CCNCC2)nc(-c2ccc(NC(=O)NC3CC3)cc2)n1` [Example 30, 3-Cyclopropyl-1-[4-[4-[4-(3,5-difluorophenyl)sulfonylpiperidin-4-yl]-6-[(3S)-3-methylmorpholin-4-yl]pyrimidin-2-yl]phenyl]urea], the IC50 is 25 nM.

As for `CC(C)NC(=O)Nc1ccc(-c2nc(N3CCOC[C@@H]3C)cc(C3(S(=O)(=O)CCCO)CC3)n2)cc1` [Example 31, 1-[4-[4-[1-(3-Hydroxypropylsulfonyl)cyclopropyl]-6-[(3S)-3-methylmorpholin-4-yl]pyrimidin-2-yl]phenyl]-3-propan-2-ylurea], the IC50 came out at 4.52 nM.

As for `C[C@H]1COCCN1c1cc(C2(S(=O)(=O)CCCO)CC2)nc(-c2ccc(NC(=O)NC3CCC3)cc2)n1` [Example 31b, 3-cyclobutyl-1-[4-[4-[1-(3-hydroxypropylsulfonyl)cyclopropyl]-6-[(3S)-3-methylmorpholin-4-yl]pyrimidin-2-yl]phenyl]urea], the IC50 was found to be 4.97 nM.

On to `C[C@H]1COCCN1c1cc(C2(S(=O)(=O)CCCO)CC2)nc(-c2ccc(NC(=O)Nc3ccccn3)cc2)n1` [Example 31c, 1-[4-[4-[1-(3-hydroxypropylsulfonyl)cyclopropyl]-6-[(3S)-3-methylmorpholin-4-yl]pyrimidin-2-yl]phenyl]-3-pyridin-2-ylurea], for which the IC50 amounted to 1.31 nM.

`CC(C)CNC(=O)Nc1ccc(-c2nc(N3CCOC[C@@H]3C)cc(C3(S(=O)(=O)CCCO)CC3)n2)cc1` [Example 31d, 1-[4-[4-[1-(3-hydroxypropylsulfonyl)cyclopropyl]-6-[(3S)-3-methylmorpholin-4-yl]pyrimidin-2-yl]phenyl]-3-(2-methylpropyl)urea]: the IC50 turned out to be 9.55 nM.

Consider `CCNC(=O)Nc1ccc(-c2nc(N3CCOC[C@@H]3C)cc(C3(S(=O)(=O)CCCO)CC3)n2)cc1` [Example 31e, 1-ethyl-3-[4-[4-[1-(3-hydroxypropylsulfonyl)cyclopropyl]-6-[(3S)-3-methylmorpholin-4-yl]pyrimidin-2-yl]phenyl]urea], for which the IC50 amounted to 1.07 nM.

With `C[C@H]1COCCN1c1cc(C2(S(=O)(=O)CCCO)CC2)nc(-c2ccc(NC(=O)NCCO)cc2)n1` [Example 31f, 3-(2-hydroxyethyl)-1-[4-[4-[1-(3-hydroxypropylsulfonyl)cyclopropyl]-6-[(3S)-3-methylmorpholin-4-yl]pyrimidin-2-yl]phenyl]urea], the IC50 came out at 1.6 nM.
